For one molecule, Activity results are on record in ChEMBL document CHEMBL3046332, “Ultrastructural effects of pyridalyl, an insecticidal agent, on epidermal cells of Spodoptera litura larvae and cultured insect cells Sf9” (J Pestic Sci, 2006).

The subject of test [1] is Spodoptera litura. The test is described as follows: Insecticidal activity against Spodoptera litura larvae assessed as epidermal cell nuclear change at 100 ng measured after 2 hr by ultrastructural analysis/electron microscopy. In kind it is functional, organism-based.
The subject of test [2] is Spodoptera litura. Briefly: Insecticidal activity against Spodoptera litura larvae assessed as diluted Golgi apparatus in epidermal cell at 100 ng measured after 6 hr by ultrastructural analysis/electron microscopy. In kind it is functional, organism-based.
The subject of test [3] is Spodoptera litura. Briefly: Insecticidal activity against Spodoptera litura larvae assessed as paralysis at 100 ng measured after 6 hr. In kind it is functional, organism-based.
The test system of test [4] is Sf9. Briefly: Ultrastructural effect on Spodoptera frugiperda (fall armyworm) sf9 cells assessed as decrease in mitochondrial number at 1 uM measured 4 to 6 hr by electron microscopy. In kind it is functional, cell-based.
Test [5] deals with Spodoptera litura. Briefly: Insecticidal activity against Spodoptera litura larvae assessed as shorten microvillous projections epidermal cell at 100 ng measured after 6 hr by ultrastructural analysis/electron. In kind it is functional, organism-based.
The subject of test [6] is Spodoptera litura. Briefly: Insecticidal activity against Spodoptera litura larvae assessed as muscular and fat tissues underlying the epidermis at 100 ng measured after 6 hr by ultrastructural analysis/electron microscopy. As to conditions: Adipose tissue. In kind it is functional, organism-based.
Test [7] deals with Sf9. Briefly: Ultrastructural effect on Spodoptera frugiperda (fall armyworm) sf9 cells assessed as low density matrix mitochondria at 1 uM measured 4 to 6 hr by electron microscopy. In kind it is functional, cell-based.
Test [8] deals with Sf9. Briefly: Ultrastructural effect on Spodoptera frugiperda (fall armyworm) sf9 cells assessed as dissociation of polysomes and nuclear swelling at 1 uM measured 4 to 6 hr by electron microscopy. In kind it is functional, cell-based.
Test [9] concerns Spodoptera litura. The test is described as follows: Insecticidal activity against Spodoptera litura larvae assessed as condensed and shrunken epidermal cell at 100 ng measured after 6 hr by ultrastructural analysis/electron microscopy. In kind it is functional, organism-based.
Test [10] has as its system Spodoptera litura. The test is described as follows: Insecticidal activity against Spodoptera litura larvae assessed as midgut and ganglia at 100 ng measured after 6 hr by ultrastructural analysis/electron microscopy. In kind it is functional, organism-based.
In test [11] the test system is Spodoptera litura. Briefly: Insecticidal activity against Spodoptera litura larvae assessed as swollen mitochondria in epidermal cell at 100 ng measured after 6 hr by ultrastructural analysis/electron microscopy. In kind it is functional, organism-based.
Test [12] relates to Spodoptera litura. Briefly: Insecticidal activity against Spodoptera litura larvae assessed as decrease in mobility at 100 ng measured after 4 hr. In kind it is functional, organism-based.
Test [13] has as its system Spodoptera litura. The test is described as follows: Insecticidal activity against Spodoptera litura larvae assessed as dorsal aorta at 100 ng measured after 6 hr by ultrastructural analysis/electron microscopy. In kind it is functional, organism-based.
For test [14], the system named is Spodoptera litura. Briefly: Insecticidal activity against Spodoptera litura larvae assessed as symptoms at 100 ng measured after 2 hr. In kind it is functional, organism-based.
Test [15] relates to Sf9. Briefly: Ultrastructural effect on Spodoptera frugiperda (fall armyworm) sf9 cells assessed as enlarged mitochondria at 1 uM measured 4 to 6 hr by electron microscopy. In kind it is functional, cell-based.
For test [16], the system named is Spodoptera litura. The test is described as follows: Insecticidal activity against Spodoptera litura larvae assessed as diluted rough endoplasmic reticula in epidermal cell at 100 ng measured after 6 hr by ultrastructural analysis/electron microscopy. In kind it is functional, organism-based.
Test [17] relates to Spodoptera litura. The test is described as follows: Insecticidal activity against Spodoptera litura larvae assessed as enlarged mitochondria in epidermal cell at 100 ng measured after 4 hr by ultrastructural analysis/electron microscopy. In kind it is functional, organism-based.
In test [18] the test system is Spodoptera litura. Briefly: Insecticidal activity against Spodoptera litura larvae assessed as condensed nuclei in epidermal cell at 100 ng measured after 4 hr by ultrastructural analysis/electron microscopy. In kind it is functional, organism-based.
Test [19] deals with Spodoptera litura. The test is described as follows: Insecticidal activity against Spodoptera litura larvae assessed intracytoplasmic ultrastructures of the epidermal cell at 100 ng measured after 2 hr by ultrastructural analysis/electron microscopy. In kind it is functional, organism-based.
For test [20], the system named is Sf9. The test is described as follows: Ultrastructural effect on Spodoptera frugiperda (fall armyworm) sf9 cells assessed as swollen mitochondria at 1 uM measured for 8 hr by electron microscopy. In kind it is functional, cell-based.
Test [21] concerns Sf9. Briefly: Ultrastructural effect on Spodoptera frugiperda (fall armyworm) sf9 cells assessed as mitochondria with disarranged cristae at 1 uM measured 8 hr by electron microscopy. In kind it is functional, cell-based.

Active and inactive are the calls of the source. The rule behind the calls is not given here.

With `FC(F)(F)c1ccc(OCCCOc2c(Cl)cc(OCC=C(Cl)Cl)cc2Cl)nc1`, the result in the test with Spodoptera litura [1], in the test on Spodoptera litura [6], in the test on Spodoptera litura [10], with Spodoptera litura [13], with Spodoptera litura [14] and in the test on Spodoptera litura [19] was inactive. The outcome in the test with Spodoptera litura [2], in the test on Spodoptera litura [3], with Sf9 [4], in the test on Spodoptera litura [5], with Sf9 [7] and in the test on Sf9 [8] was Active. Further, the outcome with Spodoptera litura [9], in the test with Spodoptera litura [11], with Spodoptera litura [12], in the test with Sf9 [15], with Spodoptera litura [16] and in the test on Spodoptera litura [17] was Active. The outcome with Spodoptera litura [18], in the test on Sf9 [20] and in the test with Sf9 [21] was Active.
